# Measurements as given in publication PMC12400318 (Biochemical Journal, 2025).
# T1: T. melanesiensis CtfAB (T. mel CtfAB; WT-CtfAB) (Thermosipho melanesiensis, UniProt A6LM39+A6LM40)
# T1 sequence (A6LM40 1-217): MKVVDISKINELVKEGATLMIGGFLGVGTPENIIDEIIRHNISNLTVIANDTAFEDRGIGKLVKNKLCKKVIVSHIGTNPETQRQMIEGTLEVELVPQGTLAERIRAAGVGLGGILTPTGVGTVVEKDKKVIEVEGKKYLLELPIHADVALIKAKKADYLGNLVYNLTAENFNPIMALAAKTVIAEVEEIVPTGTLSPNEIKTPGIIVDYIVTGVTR
# T1 sequence (A6LM39 1-214): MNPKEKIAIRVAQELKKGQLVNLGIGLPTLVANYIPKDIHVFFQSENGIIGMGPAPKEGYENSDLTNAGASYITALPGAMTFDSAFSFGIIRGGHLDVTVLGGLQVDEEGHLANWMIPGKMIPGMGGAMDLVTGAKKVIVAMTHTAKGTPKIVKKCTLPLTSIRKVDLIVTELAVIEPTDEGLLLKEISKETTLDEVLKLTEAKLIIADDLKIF
# B1: T. melanesiensis CtfAB (T. mel CtfAB; WT-CtfAB) (Thermosipho melanesiensis BI429) (protein)
# chain 1: T1 sequence (A6LM40 1-217)
# chain 2: T1 sequence (A6LM39 1-214)
# notes: co-expressed in E. coli Rosetta 2(DE3)pLysS; N-terminal 6xHis on CtfA, untagged CtfB; subunits Mr 23-25 kDa; heterotetramer (two CtfA-CtfB heterodimers) in crystals
# B2: Thermosipho melanesiensis CtfAB heterodimer (His6-CtfA with CtfB), wild type (complex)
# chain 1: T1 sequence (A6LM40 1-217)
# chain 2: T1 sequence (A6LM39 1-214)
# notes: CoA transferase subunit A (CtfA) of Thermosipho melanesiensis, Tmel_1136, WP_012057350; as the chain of m1; 3-oxoacid CoA-transferase subunit B (CtfB) of Thermosipho melanesiensis, Tmel_1135, WP_012057349; as the chain of m2; Used for the self-association of the CtfAB heterodimer into a heterotetramer and higher oligomers; also called T. mel CtfAB; WT-CtfAB; not shown: His6, N-terminal, kept
# How the values were obtained:
# [1] = target: T2, T. melanesiensis CtfAB (T. mel CtfAB; WT-CtfAB) (Thermosipho melanesiensis, UniProt A6LM39+A6LM40, A6LM39:F42T/A6LM39:S45C); test: X-ray crystal structure, […] Å; format: binding
# T2 construct: gene Tmel_1136; co-expressed in E. coli Rosetta 2(DE3)pLysS; N-terminal 6xHis on CtfA, untagged CtfB; subunits Mr 23-25 kDa; heterotetramer (two CtfA-CtfB heterodimers) in crystals
# [2] = target: T3, T. melanesiensis CtfAB (T. mel CtfAB; WT-CtfAB) (Thermosipho melanesiensis, UniProt A6LM39+A6LM40, A6LM39:E46S); settings: acetate from crystallisation buffer; second acetate in place of the catalytic glutamate carboxylate
# T3 construct: gene Tmel_1136
# [3] = target: T4, T. melanesiensis CtfAB (T. mel CtfAB; WT-CtfAB) (Thermosipho melanesiensis, UniProt A6LM39+A6LM40, A6LM39:E46D); set-up: gene Tmel_1136; settings: acetate from crystallisation buffer; pocket next to residue 46
# [4] = target: T1, T. melanesiensis CtfAB (T. mel CtfAB; WT-CtfAB); set-up: gene Tmel_1136; settings: rate-equation constant of substrate B (acetate) in the forward fit, not a separate inhibition assay; 100 mM Tris-HCl, 40 mM MgCl2, 5% glycerol, pH 7.5, 65 °C
# [5] = target: T1, T. melanesiensis CtfAB (T. mel CtfAB; WT-CtfAB); test: acetoacetyl-CoA Mg-enolate consumption at […] nm; global ping-pong bi-bi fit with inhibition; format: biochemical; set-up: gene Tmel_1136; co-expressed in E. coli Rosetta 2(DE3)pLysS; N-terminal 6xHis on CtfA, untagged CtfB; subunits Mr 23-25 kDa; heterotetramer (two CtfA-CtfB heterodimers) in crystals; settings: read-out: Ki,Q
# [6] = target: T4, T. melanesiensis CtfAB (T. mel CtfAB; WT-CtfAB); test: hydrolase activity assay; format: biochemical; set-up: gene Tmel_1136; co-expressed in E. coli Rosetta 2(DE3)pLysS; N-terminal 6xHis on CtfA, untagged CtfB; subunits Mr 23-25 kDa; heterotetramer (two CtfA-CtfB heterodimers) in crystals; settings: CoA hydrolase instead of transferase; acetate not required
# [7] = substrate: CC(=O)O; test: purified protein; settings: forward reaction, co-substrate acetoacetyl-CoA (0.025-0.4 mM), 100 mM Tris-HCl, 40 mM MgCl2, 5% glycerol, pH 7.5, 65 °C
# [8] = substrate: CC(=O)CC(=O)O; test: purified protein; format: biochemical, Thermosipho melanesiensis; settings: reverse reaction, co-substrate acetyl-CoA (0.033-0.4 mM), 100 mM Tris-HCl, 40 mM MgCl2, 5% glycerol, pH 7.5, 65 °C
# [9] = substrate: CC(=O)CC(=O)SCCNC(=O)CCNC(=O)[C@H](O)C(C)(C)COP(=O)(O)OP(=O)(O)OC[C@H]1O[C@@H](n2cnc3c(N)ncnc32)[C@H](O)[C@@H]1OP(=O)(O)O; test: purified protein; format: biochemical, Thermosipho melanesiensis; settings: forward reaction, co-substrate acetate (18.75-375 mM), 100 mM Tris-HCl, 40 mM MgCl2, 5% glycerol, pH 7.5, 65 °C, abstract prints 135 μM
# [10] = substrate: CC(=O)SCCNC(=O)CCNC(=O)[C@H](O)C(C)(C)COP(=O)(O)OP(=O)(O)OC[C@H]1O[C@@H](n2cnc3c(N)ncnc32)[C@H](O)[C@@H]1OP(=O)(O)O; test: purified protein; format: biochemical, Thermosipho melanesiensis; settings: reverse reaction, co-substrate acetoacetate (3.75-18.75 mM), 100 mM Tris-HCl, 40 mM MgCl2, 5% glycerol, pH 7.5, 65 °C
# [11] = target: the molecule itself; test: crystal structure; hanging drop, purified co-expressed CtfAB 5-6 mg/mL in 10 mM MOPS, 5% glycerol, 50 mM Na2SO4, 50 mM NaCl, 1 mM DTT, pH 7.5; reservoir 100 mM Na acetate pH 4.9-5.5, 6-10% PEG 3350; F42T/S45C co-crystal with 5-10 mM acetyl-CoA; space group P4(1)2(1)2
# T4 sequence (A6LM39 entry or part of it E46D, one chain of several): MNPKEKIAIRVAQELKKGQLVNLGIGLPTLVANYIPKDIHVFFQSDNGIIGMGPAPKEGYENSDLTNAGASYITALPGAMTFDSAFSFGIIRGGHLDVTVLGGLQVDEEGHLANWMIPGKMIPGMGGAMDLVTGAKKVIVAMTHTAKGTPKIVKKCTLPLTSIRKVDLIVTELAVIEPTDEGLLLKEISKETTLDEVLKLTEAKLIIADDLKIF
# T2 sequence (A6LM39 entry or part of it F42T/S45C, one chain of several): as the sequence (A6LM39 entry or part of it E46D, one chain of several) above, with F42T, S45C, D46E counted along it
# T3 sequence (A6LM39 1-214 E46S, one chain of several): as the sequence (A6LM39 entry or part of it E46D, one chain of several) above, with D46S counted along it
molecule,measurement,setting,value
CC(=O)O [acetate],"X-ray crystal structure, 1.9 Å","[1]; acetate from crystallisation buffer (100 mM Na acetate), two molecules near E46, acetyl-CoA also bound",difference density for two acetate molecules in the CtfAB F42TS45C-CoA structure
same,"X-ray crystal structure, 2.6 Å",[2],a second acetate molecule binds in the space normally occupied by the catalytic glutamate
same,"X-ray crystal structure, 2.2 Å",[3],Acetate molecules were identified in every CtfAB structure in the substrate-binding pocket
same,"Ki,B",[4],24.7 ± 16.6 mM
CC(=O)SCCNC(=O)CCNC(=O)[C@H](O)C(C)(C)COP(=O)(O)OP(=O)(O)OC[C@H]1O[C@@H](n2cnc3c(N)ncnc32)[C@H](O)[C@@H]1OP(=O)(O)O [acetyl-CoA],"X-ray crystal structure, 1.9 Å","[1]; co-crystal with 5-10 mM acetyl-CoA, site in CtfB, pantetheine part partly disordered",A co-crystal of the mutant CtfB F42T/S45C and acetyl-CoA was grown
same,Ki,[5],1.27 ± 0.276 mM
CC(=O)CC(=O)SCCNC(=O)CCNC(=O)[C@H](O)C(C)(C)COP(=O)(O)OP(=O)(O)OC[C@H]1O[C@@H](n2cnc3c(N)ncnc32)[C@H](O)[C@@H]1OP(=O)(O)O [acetoacetyl-CoA],hydrolase activity assay,[6],"converted the transferase into a hydrolase, with activity confirmed on acetoacetyl-CoA"
B1,Km,[7],84700 ± 15600 µM
same,Km,[8],1655 ± 331 µM
same,Km,[9],138 ± 28.8 µM
same,Km,[10],322 ± 41 µM
B2,stoichiometry N,[11],2 heterodimers in the heterotetramer
